Laboratory results: patent US11130724B2, “Compound, resin, composition, resist pattern formation method, and circuit pattern formation method” (Mitsubishi Gas Chemical Company, Inc., priority 2015, dated 2021)

Experiment: Solubility test in propylene glycol monomethyl ether (PGME)
Conditions: 5% by mass in PGME, 5° C., 30 days
Description: A compound was dissolved at 5% by mass in propylene glycol monomethyl ether (PGME) at 23° C. Then, the solution was left to stand still at 5° C. for 30 days.
Evaluation A: No precipitate was visually confirmed.
Evaluation C: Precipitates were visually confirmed.

solubility (summary in words of Table 7)	Compound
good	CC(c1ccc(-c2ccccc2)cc1)(c1c(O)ccc2ccccc12)c1c(O)ccc2ccccc12 [BiN-1]
good	CC(c1ccc(-c2ccccc2)cc1)(c1c(O)ccc2cc(O)ccc12)c1c(O)ccc2cc(O)ccc12 [BiN-2]
good	CC(c1ccc(-c2ccccc2)cc1)(c1c(O)ccc2ccc(O)cc12)c1c(O)ccc2ccc(O)cc12 [BiN-3]
good	CC(c1ccc(C2CCCCC2)cc1)(c1c(O)ccc2cc(O)ccc12)c1c(O)ccc2cc(O)ccc12 [BiN-4]
good	CC(c1ccc(-c2ccccc2)cc1)(c1ccc(O)c(-c2ccccc2)c1)c1ccc(O)c(-c2ccccc2)c1 [BiP-1]
good	CC(c1ccc(-c2ccccc2)cc1)(c1cc(-c2ccc(O)cc2)ccc1O)c1cc(-c2ccc(O)cc2)ccc1O [BiP-2]
good	CC(c1ccc(-c2ccccc2)cc1)(c1ccc(O)c(-c2ccccc2O)c1)c1ccc(O)c(-c2ccccc2O)c1 [BiP-3]
good	CC(c1ccc(C2CCCCC2)cc1)(c1ccc(O)c(-c2ccccc2O)c1)c1ccc(O)c(-c2ccccc2O)c1 [BiP-4]
good	CC(c1ccc(O)cc1)(c1ccc(O)cc1)c1ccc(C2CCCCC2)cc1 [P-2]
good	CC1(c2ccc(-c3ccccc3)cc2)c2ccc(O)cc2Oc2cc(O)ccc21 [P-3]
good	CC1(c2ccc(C3CCCCC3)cc2)c2ccc(O)cc2Oc2cc(O)ccc21 [P-4]
good	CC1(c2ccc(-c3ccccc3)cc2)c2c(ccc3cc(O)ccc23)Oc2ccc3cc(O)ccc3c21 [XBiN-1]
good	CC1(c2ccc(-c3ccccc3)cc2)c2c(ccc3ccc(O)cc23)Oc2ccc3ccc(O)cc3c21 [XBiN-2]
good	CC1(c2ccc(C3CCCCC3)cc2)c2c(ccc3cc(O)ccc23)Oc2ccc3cc(O)ccc3c21 [XBiN-3]
